# Results from US8367328B2, “Method for synthesizing DNA” (Takara Bio Inc., priority 1998, dated 2013).
# Columns and labels:
# [1] = tested on: Pfu DNA Polymerase I and Pfu DNA Polymerase II; test: PCR with Pfu DNA Polymerase I plus Pfu DNA Polymerase II in the presence of acidic substances; assay type: biochemical, Pyrococcus furiosus; conditions: commercially available sodium alginate, 100 to 1000 centipoises; Example 12 conditions
# Method: Using λDNA as a template, and each of primers λ1 and λ3, primers λ1 and λ4, or primers λ1 and λ5 as a primer pair, the reaction mixture having the following composition was prepared.
# Composition of Reaction Mixture: 10 mM Tris-hydrochloric acid (pH 9.2), 75 mM potassium chloride, 6 mM magnesium chloride, 0.4 mM each of dATP, dCTP, dGTP and dTTP, 0.01% BSA, 1.25 U of Pfu DNA Polymerase I and 1.25 U of Pfu DNA Polymerase II, 500 pg of λDNA, and 5 pmol each of the primers, 5 ng or 50 ng of sulfated-fucose-containing polysaccharide-F (a final volume being 25 μl). In addition, as a control, one without addition of sulfated-fucose-containing polysaccharide-F was prepared.
# The reaction in 30 cycles was carried out for each of these reaction mixtures, wherein one cycle of reaction comprises a process consisting of 98° C., 0 seconds—68° C., 0 seconds. Thereafter, 5 μl of the resulting reaction mixture was subjected to electrophoresis on 1% agarose gel containing ethidium bromide in an amount of 0.00005%, whereby an amplified fragment was confirmed.
# PCR was carried out by using in combination Pfu DNA Polymerase II obtained in Example 1 and Pfu DNA Polymerase I (manufactured by Stratagene), which is α-type DNA polymerase, and sodium alginate, which is an acidic substance.
# A reaction mixture comprising λDNA as a template, primers λ1 and λ3 as a primer pair was prepared, and PCR was carried out. […]
# [2] = tested on: TaKaRa EX-Taq DNA Polymerase; test: LA-PCR with TaKaRa EX-Taq DNA Polymerase in the presence of acidic substances; assay type: biochemical; conditions: 10 kb fragment
# Method: (1) The effects of the acidic substances were studied on LA-PCR method comprising a combination of DNA polymerase having 3′→5′ exonuclease activity, and DNA polymerase having no such activity. A reaction mixture comprising λDNA as a template, primers λ1 and λ8 as a primer pair was prepared, and PCR was carried out. In this PCR, TaKaRa EX-Taq DNA Polymerase (manufactured by Takara Shuzo Co., Ltd.) was used. The composition of the reaction mixture is as follows.
# In the following example, PCR was carried out in Fast mode by using TaKaRa PCR Thermal Cycler Personal (manufactured by Takara Shuzo Co., Ltd.).
# […] Further, 1 ng of the sulfated-fucose-containing polysaccharide-F or 0.5 μg of sodium alginate was respectively added to the above reaction mixture.
# […] After the termination of the reaction, 5 μl of the resulting reaction mixture was subjected to electrophoresis on 1% agarose gel containing ethidium bromide in an amount of 0.00005%, whereby an amplified fragment was confirmed.
# Further, PCR was carried out for a reaction having the same composition as the above reaction mixture except for using 100 pg of λDNA as template DNA, and adding 0.25 μg of sodium alginate or 1 ng of the sulfated-fucose-containing polysaccharide-F as an acidic substance.
# The reaction was carried out in 29 cycles, wherein one cycle of reaction comprises a process consisting of 98° C., 5 seconds—68° C., 3 minutes. […]
substance,measurement,setting,value
sodium alginate,"Amplification efficiency for DNA synthesis, sodium alginate of each viscosity",[1],completely the same improvements
same,Amplification Results,"[2]; template DNA 10 pg, primers λ1/λ8, 27 cycles 98°C 5 s–68°C 3 min, amount added 0.5 μg",++ (Intensive amplification being observed)
same,Amplification Results,"[2]; template DNA 100 pg, primers λ1/λ8, 29 cycles 98°C 5 s–68°C 3 min, amount added 0.25 μg",++ (Intensive amplification being observed)
